# Measured values taken from US20020137929A1, “1 - (3-heterocyclylphenyl) isothiourea, -isourea, -guanidine and -amidine herbicidal agents” (Intellectual Property Department, BASF Aktiengesellschaft, priority 1998, published 2002).
# Columns and labels:
# ABUTH (Velvetleaf) = test: Postemergence herbicidal evaluation; assay type: in vivo, Abutilon theophrasti
# In short: (§1)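 Rate range approx. 0.0156–0.500 kg/ha. Foliar application at 40 psi to ~2-week seedlings; surfactant 0.5% TWEEN 20 in 50/50 acetone/water. Evaluation 4–5 wk post-treatment by 0–9 visual injury score, means of replicate tests.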
# [1] = tested on: IPOHE (Morningglory, Ivyleaf); test: Postemergence herbicidal evaluation; assay type: in vivo, Ipomoea hederacea
# In short: as §1
# [2] = tested on: TRZAWR (Wheat, Winter, cv Riband); test: Postemergence herbicidal evaluation; assay type: in vivo, Triticum aestivum
# In short: as §1
# [3] = tested on: CHEAL (Lambsquarters, Common); test: Preemergence herbicidal evaluation; assay type: in vivo, Chenopodium album; conditions: rated 4-5 weeks after treatment
# In short: (§2)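 Each species is sown separately in potting soil over roughly an inch of soil before any emergence. The soil surface then receives an aqueous acetone spray delivering about 0.0156 to 0.500 kg/ha of compound. After four to five weeks, injury is scored from 0 to 9 relative to a control.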
# [4] = tested on: IPOHE (Morningglory, Ivyleaf); test: Preemergence herbicidal evaluation; assay type: in vivo, Ipomoea hederacea; conditions: rated 4-5 weeks after treatment
# In short: as §2
# ECHCG (Barnyardgrass) = test: Preemergence herbicidal evaluation; assay type: in vivo, Echinochloa crus-galli; conditions: rated 4-5 weeks after treatment
# In short: as §2
# SETVI (Foxtail, Green) = test: Preemergence herbicidal evaluation; assay type: in vivo, Setaria viridis; conditions: rated 4-5 weeks after treatment
# In short: as §2
# ORYSAT (Rice, Tebonnet) = test: Preemergence herbicidal evaluation; assay type: in vivo, Oryza sativa, (L.) Tebonnet; conditions: rated 4-5 weeks after treatment
# In short: as §2
# [5] = tested on: TRZAWR (Wheat, Winter, cv Riband); test: Preemergence herbicidal evaluation; assay type: in vivo, Triticum aestivum; conditions: rated 4-5 weeks after treatment
# In short: as §2
# [6] = tested on: ECHORC (Watergrass (Calif.)); test: Preemergence weed control under flooded paddy conditions; assay type: in vivo, Echinochloa oryzoides; conditions: rated 3-4 weeks after treatment
# In short: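 Herbicidal effect is scored visually on a 0-9 scale against an untreated control, three to four weeks after compounds are pipetted into the flood water (1.5 to 3 cm deep) over seeds planted in silt loam at 0.5 cm depth. Rates: about 0.0313 to 0.500 kg/ha.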
# MOOVA (Monochoria) = test: as above; assay type: in vivo, Monochoria vaginalis; conditions: rated 3-4 weeks after treatment
# In short: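 Using flooded silt loam (water 1.5 to 3 cm deep), seeds sown in the top 0.5 cm were exposed preemergence to compound pipetted into the flood at about 0.0313 to 0.500 kg/ha. Effects were scored 0-9 by eye three to four weeks later.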
# [7] = tested on: ECHORC (Watergrass (Calif.)); test: Postemergence weed control under flooded paddy conditions; assay type: in vivo, Echinochloa oryzoides; conditions: postemergence weeds, 3-4 weeks after treatment
# In short: (§3)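 Injury ratings (0–9 scale covering stand, vigor, malformation, size, chlorosis and overall appearance versus control) were made three to four weeks after treatment. Test material, about 0.0313 to 0.500 kg/ha a.i. in 50/50 v/v aqueous/acetone, was added to flood water 1.5 to 3 cm deep over 3 to 5 cm weeds and 1.5 to 2.5 leaf rice.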
# CYPIR (Rice Flatsedge) = test: as above; assay type: in vivo, Cyperus iria; conditions: postemergence weeds, 3-4 weeks after treatment
# In short: as §3
smiles,measurement,setting,value
"Cn1c(C(F)(F)F)cc(=O)n(-c2cc(N=C3NC(=O)CS3)c(Cl)cc2F)c1=O [Compound 39, 3-{4-Chloro-2-fluoro-5-[(4-oxo-2-thiazolidinylidene)amino]phenyl}-1-methyl-6-(trifluoromethyl)-2,4(1H,3H)-pyrimidinedione]",Postemergence herbicidal rating ABUTH,ABUTH (Velvetleaf); Rate 0.0158 kg/ha,0.0
same,Postemergence herbicidal rating ABUTH,ABUTH (Velvetleaf); Rate 0.0315 kg/ha,9.0
same,Postemergence herbicidal rating ABUTH,ABUTH (Velvetleaf); Rate 0.0630 kg/ha,9.0
same,Postemergence herbicidal rating IPOHE,[1]; Rate 0.0158 kg/ha,2.0
same,Postemergence herbicidal rating IPOHE,[1]; Rate 0.0315 kg/ha,7.0
same,Postemergence herbicidal rating IPOHE,[1]; Rate 0.0630 kg/ha,7.0
same,Postemergence herbicidal rating TRZAWR,[2]; Rate 0.0158 kg/ha,2.0
same,Postemergence herbicidal rating TRZAWR,[2]; Rate 0.0315 kg/ha,1.5
same,Postemergence herbicidal rating TRZAWR,[2]; Rate 0.0630 kg/ha,2.5
same,Preemergence herbicidal rating CHEAL,[3]; rate 0.0156 kg/ha,1.0
same,Preemergence herbicidal rating CHEAL,[3]; rate 0.0313 kg/ha,0.0
same,Preemergence herbicidal rating CHEAL,[3]; rate 0.0625 kg/ha,7.0
same,Preemergence herbicidal rating CHEAL,[3]; rate 0.1250 kg/ha,7.0
same,Preemergence herbicidal rating CHEAL,[3]; rate 0.2500 kg/ha,9.0
same,Preemergence herbicidal rating IPOHE,[4]; rate 0.0156 kg/ha,0.0
same,Preemergence herbicidal rating IPOHE,[4]; rate 0.0313 kg/ha,0.0
same,Preemergence herbicidal rating IPOHE,[4]; rate 0.0625 kg/ha,1.0
same,Preemergence herbicidal rating IPOHE,[4]; rate 0.1250 kg/ha,1.0
same,Preemergence herbicidal rating IPOHE,[4]; rate 0.2500 kg/ha,9.0
same,Preemergence herbicidal rating ECHCG,ECHCG (Barnyardgrass); rate 0.0156 kg/ha,0.0
same,Preemergence herbicidal rating ECHCG,ECHCG (Barnyardgrass); rate 0.0313 kg/ha,0.0
same,Preemergence herbicidal rating ECHCG,ECHCG (Barnyardgrass); rate 0.0625 kg/ha,0.0
same,Preemergence herbicidal rating ECHCG,ECHCG (Barnyardgrass); rate 0.1250 kg/ha,0.0
same,Preemergence herbicidal rating ECHCG,ECHCG (Barnyardgrass); rate 0.2500 kg/ha,0.0
same,Preemergence herbicidal rating SETVI,"SETVI (Foxtail, Green); rate 0.0156 kg/ha",0.0
same,Preemergence herbicidal rating SETVI,"SETVI (Foxtail, Green); rate 0.0313 kg/ha",0.0
same,Preemergence herbicidal rating SETVI,"SETVI (Foxtail, Green); rate 0.0625 kg/ha",0.0
same,Preemergence herbicidal rating SETVI,"SETVI (Foxtail, Green); rate 0.1250 kg/ha",0.0
same,Preemergence herbicidal rating SETVI,"SETVI (Foxtail, Green); rate 0.2500 kg/ha",2.0
same,Preemergence herbicidal rating ORYSAT,"ORYSAT (Rice, Tebonnet); rate 0.0156 kg/ha",0.0
same,Preemergence herbicidal rating ORYSAT,"ORYSAT (Rice, Tebonnet); rate 0.0313 kg/ha",0.0
same,Preemergence herbicidal rating ORYSAT,"ORYSAT (Rice, Tebonnet); rate 0.0625 kg/ha",0.0
same,Preemergence herbicidal rating ORYSAT,"ORYSAT (Rice, Tebonnet); rate 0.1250 kg/ha",1.0
same,Preemergence herbicidal rating ORYSAT,"ORYSAT (Rice, Tebonnet); rate 0.2500 kg/ha",2.0
same,Preemergence herbicidal rating TRZAWR,[5]; rate 0.0156 kg/ha,0.0
same,Preemergence herbicidal rating TRZAWR,[5]; rate 0.0313 kg/ha,0.0
same,Preemergence herbicidal rating TRZAWR,[5]; rate 0.0625 kg/ha,0.0
same,Preemergence herbicidal rating TRZAWR,[5]; rate 0.1250 kg/ha,1.0
same,Preemergence herbicidal rating TRZAWR,[5]; rate 0.2500 kg/ha,2.0
same,Herbicidal rating ECHORC,[6]; 0.0313 kg/ha,0.0
same,Herbicidal rating ECHORC,[6]; 0.0625 kg/ha,0.0
same,Herbicidal rating ECHORC,[6]; 0.1250 kg/ha,2.0
same,Herbicidal rating ECHORC,[6]; 0.2500 kg/ha,3.0
same,Herbicidal rating MOOVA,MOOVA (Monochoria); 0.0313 kg/ha,9.0
same,Herbicidal rating MOOVA,MOOVA (Monochoria); 0.0625 kg/ha,9.0
same,Herbicidal rating MOOVA,MOOVA (Monochoria); 0.1250 kg/ha,9.0
same,Herbicidal rating MOOVA,MOOVA (Monochoria); 0.2500 kg/ha,9.0
same,Herbicidal rating ECHORC,[7]; rate 0.0313 kg/ha,0.0
same,Herbicidal rating ECHORC,[7]; rate 0.0625 kg/ha,0.0
same,Herbicidal rating ECHORC,[7]; rate 0.1250 kg/ha,2.0
same,Herbicidal rating ECHORC,[7]; rate 0.2500 kg/ha,3.0
same,Herbicidal rating CYPIR,CYPIR (Rice Flatsedge); rate 0.0313 kg/ha,0.0
same,Herbicidal rating CYPIR,CYPIR (Rice Flatsedge); rate 0.0625 kg/ha,0.0
same,Herbicidal rating CYPIR,CYPIR (Rice Flatsedge); rate 0.1250 kg/ha,0.0
same,Herbicidal rating CYPIR,CYPIR (Rice Flatsedge); rate 0.2500 kg/ha,0.0
"Cn1c(C(F)(F)F)cc(=O)n(-c2cc(N=C3SCC(=O)N3CC(=O)OC(C)(C)C)c(Cl)cc2F)c1=O [Compound 43, tert-Butyl 2-{{2-chloro-5-[3,6-dihydro-3-methyl-2,6-dioxo-4-(trifluoromethyl)-1(2H)-pyrimidinyl]-4-fluorophenyl}imino}-4-oxo-3-thiazolidineacetate]",Postemergence herbicidal rating ABUTH,ABUTH (Velvetleaf); Rate 0.0158 kg/ha,9.0
same,Postemergence herbicidal rating ABUTH,ABUTH (Velvetleaf); Rate 0.0315 kg/ha,9.0
same,Postemergence herbicidal rating ABUTH,ABUTH (Velvetleaf); Rate 0.0630 kg/ha,9.0
same,Postemergence herbicidal rating IPOHE,[1]; Rate 0.0158 kg/ha,9.0
same,Postemergence herbicidal rating IPOHE,[1]; Rate 0.0315 kg/ha,9.0
same,Postemergence herbicidal rating IPOHE,[1]; Rate 0.0630 kg/ha,9.0
same,Postemergence herbicidal rating TRZAWR,[2]; Rate 0.0158 kg/ha,3.0
same,Postemergence herbicidal rating TRZAWR,[2]; Rate 0.0315 kg/ha,3.5
same,Postemergence herbicidal rating TRZAWR,[2]; Rate 0.0630 kg/ha,4.0
same,Preemergence herbicidal rating CHEAL,[3]; rate 0.0156 kg/ha,9.0
same,Preemergence herbicidal rating CHEAL,[3]; rate 0.0313 kg/ha,9.0
same,Preemergence herbicidal rating CHEAL,[3]; rate 0.0625 kg/ha,9.0
same,Preemergence herbicidal rating CHEAL,[3]; rate 0.1250 kg/ha,9.0
same,Preemergence herbicidal rating CHEAL,[3]; rate 0.2500 kg/ha,9.0
same,Preemergence herbicidal rating IPOHE,[4]; rate 0.0156 kg/ha,0.0
same,Preemergence herbicidal rating IPOHE,[4]; rate 0.0313 kg/ha,0.0
same,Preemergence herbicidal rating IPOHE,[4]; rate 0.0625 kg/ha,0.0
same,Preemergence herbicidal rating IPOHE,[4]; rate 0.1250 kg/ha,2.0
same,Preemergence herbicidal rating IPOHE,[4]; rate 0.2500 kg/ha,9.0
same,Preemergence herbicidal rating ECHCG,ECHCG (Barnyardgrass); rate 0.0156 kg/ha,0.0
same,Preemergence herbicidal rating ECHCG,ECHCG (Barnyardgrass); rate 0.0313 kg/ha,0.0
same,Preemergence herbicidal rating ECHCG,ECHCG (Barnyardgrass); rate 0.0625 kg/ha,0.0
same,Preemergence herbicidal rating ECHCG,ECHCG (Barnyardgrass); rate 0.1250 kg/ha,0.0
same,Preemergence herbicidal rating ECHCG,ECHCG (Barnyardgrass); rate 0.2500 kg/ha,5.0
same,Preemergence herbicidal rating SETVI,"SETVI (Foxtail, Green); rate 0.0156 kg/ha",0.0
same,Preemergence herbicidal rating SETVI,"SETVI (Foxtail, Green); rate 0.0313 kg/ha",0.0
same,Preemergence herbicidal rating SETVI,"SETVI (Foxtail, Green); rate 0.0625 kg/ha",0.0
same,Preemergence herbicidal rating SETVI,"SETVI (Foxtail, Green); rate 0.1250 kg/ha",5.0
same,Preemergence herbicidal rating SETVI,"SETVI (Foxtail, Green); rate 0.2500 kg/ha",9.0
same,Preemergence herbicidal rating ORYSAT,"ORYSAT (Rice, Tebonnet); rate 0.0156 kg/ha",0.0
same,Preemergence herbicidal rating ORYSAT,"ORYSAT (Rice, Tebonnet); rate 0.0313 kg/ha",0.0
same,Preemergence herbicidal rating ORYSAT,"ORYSAT (Rice, Tebonnet); rate 0.0625 kg/ha",0.0
same,Preemergence herbicidal rating ORYSAT,"ORYSAT (Rice, Tebonnet); rate 0.1250 kg/ha",0.0
same,Preemergence herbicidal rating ORYSAT,"ORYSAT (Rice, Tebonnet); rate 0.2500 kg/ha",0.0
same,Preemergence herbicidal rating TRZAWR,[5]; rate 0.0156 kg/ha,0.0
same,Preemergence herbicidal rating TRZAWR,[5]; rate 0.0313 kg/ha,0.0
same,Preemergence herbicidal rating TRZAWR,[5]; rate 0.0625 kg/ha,0.0
same,Preemergence herbicidal rating TRZAWR,[5]; rate 0.1250 kg/ha,1.0
same,Preemergence herbicidal rating TRZAWR,[5]; rate 0.2500 kg/ha,4.0
same,Herbicidal rating ECHORC,[6]; 0.0313 kg/ha,5.0
same,Herbicidal rating ECHORC,[6]; 0.0625 kg/ha,6.0
same,Herbicidal rating ECHORC,[6]; 0.1250 kg/ha,7.0
same,Herbicidal rating ECHORC,[6]; 0.2500 kg/ha,9.0
same,Herbicidal rating MOOVA,MOOVA (Monochoria); 0.0313 kg/ha,9.0
same,Herbicidal rating MOOVA,MOOVA (Monochoria); 0.0625 kg/ha,9.0
same,Herbicidal rating MOOVA,MOOVA (Monochoria); 0.1250 kg/ha,9.0
same,Herbicidal rating MOOVA,MOOVA (Monochoria); 0.2500 kg/ha,9.0
same,Herbicidal rating ECHORC,[7]; rate 0.0313 kg/ha,5.0
same,Herbicidal rating ECHORC,[7]; rate 0.0825 kg/ha,6.0
same,Herbicidal rating ECHORC,[7]; rate 0.1250 kg/ha,7.0
same,Herbicidal rating ECHORC,[7]; rate 0.2500 kg/ha,9.0
same,Herbicidal rating CYPIR,CYPIR (Rice Flatsedge); rate 0.0313 kg/ha,0.0
same,Herbicidal rating CYPIR,CYPIR (Rice Flatsedge); rate 0.1250 kg/ha,4.0
same,Herbicidal rating CYPIR,CYPIR (Rice Flatsedge); rate 0.2500 kg/ha,5.0
